# Assays:
# [1] = test system: human pancreatic cancer cell line (B×PC-3); experiment: In vivo inhibition of tumor growth, BxPC-3 xenograft; parameters: species or system human tumor cells in nude mice; conditions: for Starting volume: at start
# Method: Cells from a non-small cell lung cancer cell line (A549) were grown in nine T175 flasks in F12K media and 10% fetal calf serum until the cells were confluent. 4.5×10^6 cells (in 100 microliters) were injected into the right rear flank of 4-5 week old male homozygous (nu/nu) nude mice (Harlan, Madison Wis.). Tumors were allowed to grow to an average size of ≧75 mm^3 before treatments were initiated. Animals of each tumor type, with the properly sized tumors, were divided into treatment groups, including one set of animals treated weekly with vehicle (phosphate buffered saline, PBS). The vehicle and the test agents were all administered by intraperitoneal injection. Each animal was weighed twice a week during treatment. The tumors were measured twice weekly using calipers. Tumor volume (mm^3) was determined by using the formula for an ellipsoid sphere: […]
# The percent tumor growth inhibition (% TGI) is calculated by: […]
# (§1) The xenograft model of this example was set up as in the previous example except that a human pancreatic cancer cell line (B×PC-3) was used. The efficacy of wild type human RNase 1 is shown relative to gemcite. The RNase 1 was administered at 15 mg per kg of body weight of the animal five times per week (15 mg/kg qd×5), while the gemcite was used at 60 mg/kg twice a week. The value of n represents the number of animals in the specific treatment arm of the experiment.
# as §1, with “shown.” for “shown relative to gemcite.”, “three different doses: (1) 30” for “15”, “once” for “five times”, “(30” for “(15”, “1×wk), (2) 75” for “qd×5), while the gemcite was used at 60”, “1×wk, or (3) 150 mg/kg 1×wk.” for “twice a week.”
# [2] = Clinical chemistry and complete blood count plus platelets (DU145 xenograft mice); assay type: in vivo
# Method: Clinical chemistry and a complete blood count (CBC) plus platelets were performed on whole blood and serum samples collected from the mice 24 hours after the last treatment of the prostate xenograft model above. […] Creatinine was also tested and found not to differ. The levels of the liver enzymes, gamma glutamyl transferase (GGT) and alanine transaminase (ALT) in all treatment groups were similar (GGT data not shown.). The values were determined for the various treatment groups of the prostate (DU145) xenograft study for clinical chemistry (A., B.), complete blood count (C., D.), and platelets (F.). Abbreviations: TCO2, amount of bicarbonate ion (HCO3^−); Anion Gap, [Na+K]—[Cl+HCO3]; ALT, alanine aminotransferase; WBC, white blood count; RBC, red blood count; HGB, hemoglobin; RBC HGB, (CHCM×RBC×MCV)/1000); MCH, mean corpuscular hemoglobin; MCHC, mean corpuscular hemoglobin concentration; RDW, red cell distribution width; MPV, mean platelet volume; HCT, hematocrit; MCV, mean corpuscular volume.
# [3] = Example 5, Table 9, RNase 1 15 mg/kg qd×5, gemcite 60 mg/kg twice a week
# [4] = Example 7, Table 11, 30 mg/kg 1×wk
# [5] = Example 7, Table 11, 75 mg/kg 1×wk
# [6] = Example 7, Table 11, 150 mg/kg 1×wk
substance,measurement,setting,value
"Wild type human RNase 1: wild type human ribonuclease 1 (human pancreatic RNase), SEQ ID NO:1",% TGI,[1]; [3],24%
same,(Final − start),[1]; [3],822 mm^3
same,(Final − start)/Control,[1]; [3],0.76
same,Final volume,[1]; [3],899 mm^3
same,Starting volume,[1]; [3],77 mm^3
same,% TGI,[1]; [4],3%
same,(Final − start),[1]; [4],554 mm^3
same,(Final − start)/Control,[1]; [4],0.97
same,Final volume,[1]; [4],632 mm^3
same,Starting volume,[1]; [4],78 mm^3
same,% TGI,[1]; [5],43%
same,(Final − start),[1]; [5],323 mm^3
same,(Final − start)/Control,[1]; [5],0.57
same,Final volume,[1]; [5],392 mm^3
same,Starting volume,[1]; [5],69 mm^3
same,% TGI,[1]; [6],29%
same,(Final − start),[1]; [6],402 mm^3
same,(Final − start)/Control,[1]; [6],0.71
same,Final volume,[1]; [6],471 mm^3
same,Starting volume,[1]; [6],69 mm^3
same,Creatinine versus vehicle,[2]; 24 hours after the last treatment,not to differ
same,"Clinical chemistry and complete blood count plus platelets, all tests, versus vehicle","[2]; whole blood and serum 24 hours after the last treatment, Mann-Whitney U test",not to be significantly different
